Reference: patent EP0943615A1, “1,4-DIHYDROPYRIDINE DERIVATIVES” (Nikken Chemicals Company, Limited, priority 1996, dated 1998)
“And” between values parts separate entries of the source, which are not always exact repeats. Equal entries are not always repeated. Where two headings read alike, the source gives them in different places.

Key:
[1] = system: VJ-300 cells; test: In vitro test of action suppressing proliferation of cancer cells, combined administration of doxorubicin (colony formation), resistant cells; format: cell-based, Human; settings: ADM alone or ADM + test compound 1 µg/ml, LD50 of ADM relative to ADM alone in KB cells = 1, 7 days incubation, colony count
[2] = system: VJ-300 cells; test: In vitro test of action suppressing proliferation of cancer cells, combined administration of vincristine, resistant cells; format: cell-based, Human; settings: VCR alone or VCR + test compound 1 µg/ml, LD50 of VCR relative to VCR alone in KB cells = 1
Method: As the incubation solutions, use was made of 10% fetal calf serum (Flow Laboratories) and Eagle MEM medium (Nissui Seiyaku) containing 0.292 mg/ml of L-glutamine (Flow Laboratories). The tests of the action for overcoming resistance to anti-cancer drugs or action for increasing the effect of the anti-cancer drug with the combined administration of the anti-cancer drug doxorubicin (i.e., adriamycin, ADM) and the test compound were performed as follows:
The test cells were suspended in incubation solutions and adjusted to a cell density of about 200 cells/ml. The cell suspensions were injected in 2 ml amounts into petri dishes and were incubated in a CO2 gas incubator (5% CO2, 95% air) at 37°C for 24 hours. Then, 5 µl of a predetermined concentration of the aqueous ADM solution and a predetermined concentration of a DMSO solution of the test compound were added, then the incubation was continued for a further 7 days. After the end of the incubation, the result was immobilized with methanol, Giemsa stained and measured for the number of colonies per dish. The results were used to prepare a volume-reaction curve. […] The results are shown in Table 8 to Table 10 using the concentration of LD50 of ADM in the ADM alone group by KB cells as the resistance degree 1 and calculating the resistances of the following LD50 concentrations as relative ratios.
The same method as in Test Example 1 was used to test the action of vincristine (VCR) on anti-cancer drugs, prepare a volume-reaction curve, and calculate the resistances.

[3] = system: thoracic aorta of the rat; test: Action easing KCl contraction in rat arteries (aortic ring, Magnus tube); settings: read-out: IC50 value (x 10^-6 M)
[4] = Acute toxicity test; settings: mouse, in vivo, ip; ddY male mice, intraperitoneally, suspended in 0.5% CMC-Na with 0.1% Tween 80, observed up until 7 days
Method: • Animals used: ddY male mice (SLC Japan), 4-5 weeks old, three to five mice per group. • Test method: The compound of the present invention was suspended in 0.5% sodium carboxymethylcellulose (CMC-Na) containing 0.1% Tween 80. It was administered to the mice intraperitoneally in amounts from 1000 mg/kg to 250 mg/kg in groups of three to five mice until no more deaths were observed. The survival of the animals was observed up until 7 days after administration.

[5] = system: VCR resistant murine leukemia (P388/VCR) cells; test: In vivo test: overcoming resistance to vincristine in VCR resistant murine leukemia cell bearing mice; parameters: species or system CDF1 male mice; settings: P388/VCR bearing CDF1 mice, VCR 100 µg/kg alone or with compound 100 mg/kg, intraperitoneally for 5 days; for Effect of overcoming resistance T/V (%): T/C of combination over T/C of VCR alone x 100; for Rate of prolongation of life T/C (%): with respect to controls
Method: 10^6 VCR resistant murine leukemia (P388/VCR) cells were transplanted intraperitoneally into groups of six CDF1 male mice, then the compound of the present invention (100 mg/kg) and VCR (100 µg/kg) were administered intraperitoneally for 5 days. […] Effect of overcoming resistance to anti-cancer drug (T/V) % = [(Rate of prolongation of life using VCR and present compound (T/C))/(Rate of prolongation of life using VCR alone (T/C))] x 100 [formula]

[6] = 50% inhibitory concentration of hyperpotassium contraction, 50mM potassium chloride, rat thoracic aorta ring, cumulative addition

SMILES	Degree of resistance for ADM VJ-300 [1]	Degree of resistance for VCR VJ-300 [2]	IC50 [3, 6] [nM]	Average days of survival [5]	Effect of overcoming resistance T/V (%) [5] [%]	Rate of prolongation of life T/C (%) [5] [%]	also measured
CCOC(=O)C1=C(c2ccc(-n3c(C)nc4cnccc43)cc2)NC(C)=C(C(=O)OCCCc2cccnc2)C1C(C)C (centres unmarked) [Compound 2, 4-isopronyl-6-methyl-2-[4-(2-methylimidazo[4,5-c]pyridin-1-yl)phenyl]-1,4-dihydronyridin-3,5-dicarboxylate 3-ethylester, 5-[3-(3-pyridyl)propyl]ester]	2.7	9.6	> 30000				LD50 at 168 h [4]: > 1000 mg/kg
CCCCCC1C(C(=O)OCCCc2cccnc2)=C(C)NC(c2ccc(-n3c(C)nc4ncccc43)cc2)=C1C(=O)OCC (centres unmarked) [Compound 3, 6-methyl-2-[4-(2-methylimidazo[4,5-b]pyridin-1-yl)phenyl]-4-pentyl-1,4-dihydropyridin-3,5-dicarboxylate 3-ethylester, 5-[3-(3-pyridyl)propyl]ester]	1.2	7.1		15.0	133	127	
CCCCCC1C(C(=O)OCCCc2cccnc2)=C(C)NC(c2ccccc2)=C1C(=O)OCC (centres unmarked) [Compound 15, 6-methyl-4-pentyl-2-phenyl-1,4-dihydropyridin-3,5-dicarboxylate 3-ethylester, 5-[3-(3-pyridyl)propyl]ester]	3.2	6.5		15.7	128	139	
COC(=O)C1=C(C)NC(C)=C(C(=O)OCCN(C)Cc2ccccc2)C1c1cccc([N+](=O)[O-])c1 (centres unmarked) [Nicardipine]			260				
CC[C@]1(O)C[C@H]2CN(CCc3c([nH]c4ccccc34)[C@@](C(=O)OC)(c3cc4c(cc3OC)N(C=O)[C@H]3[C@@](O)(C(=O)OC)[C@H](OC(C)=O)[C@]5(CC)C=CCN6CC[C@]43[C@@H]65)C2)C1 [VCR, vincristine, reference compound]		483 - 952			100		Average days of survival ([5]; 100 mg/kg): 11.3 and 9.8 and 12.3; Rate of prolongation of life T/C (%) ([5]; 100 mg/kg): 96% and 103% and 109%
COc1ccc(CCN(C)CCCC(C#N)(c2ccc(OC)c(OC)c2)C(C)C)cc1OC (centres unmarked) [Verapamil]							IC50 ([3]; Rattus norvegicus): 1430 nM
